Source: patent US20100234377A1 (priority 2007, published 2010)
Read-outs that look alike come from different tables or passages of the source.

What was measured:
[1] = molecular target: T1, human Prostaglandin D Synthase (GST2) (Homo sapiens, UniProt O60760); test: Homogeneous biochemical assay of human Prostaglandin D Synthase (GST2) based on its glutathion-S-transferase activity (GSH conjugation to monochlorobimane, fluorescence)
T1 construct: the open reading frame of human Prostaglandin D Synthase was amplified from cDNA; made in house; host or cells: E. coli TOP10F'
T1 sequence (O60760 whole entry): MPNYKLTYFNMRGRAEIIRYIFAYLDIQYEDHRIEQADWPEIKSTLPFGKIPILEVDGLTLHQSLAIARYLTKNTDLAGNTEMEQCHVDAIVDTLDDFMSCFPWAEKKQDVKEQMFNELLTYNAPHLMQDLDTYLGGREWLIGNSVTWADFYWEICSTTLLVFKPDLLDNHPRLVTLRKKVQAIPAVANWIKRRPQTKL
Method in brief: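 N-His-tagged human PGD synthase from E. coli, assayed via its GST activity: GSH conjugation to monochlorobimane in 50 mM MES/KOH pH 6.1, 0.7 mM GSH, 2 mM MgCl2. Compounds at final picomolar to triple-digit micromolar concentrations.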

[2] = Mouse microsomal metabolism assay; format: in vitro ADME; details: mouse hepatic microsomes, 37° C., phosphate buffer pH 7.4, NADPH regenerating system; for half-life: liver microsomes, read-out: Mouse t½
Description: Selected GST2 Inhibitors from Formula I Assessed in Mouse Microsomal Metabolism Assay
Selected GST2 inhibitors of General Formula (I) were screened in a mouse hepatic microsome assay to determine microsomal metabolism.
Test Articles were prepared in 50% acetonitrile.
Mouse hepatic microsomes supplied by BD GenTest Inc or an equivalent reputable supplier.
Test Articles are added to incubation plates containing phosphate buffer pH 7.4 and microsomes at a suitable protein concentration. Incubation plates are placed on a shaking water bath at 37° C. for 5 minutes pre-incubation. An aliquot of the reaction mixture is taken and added to acetonitrile (3:1). This is designated time […]. NADPH regenerating system in phosphate buffer pH 7.4 is added to initiate reactions. Aliquots from the incubation wells are taken at a number of time points and added to acetonitrile. Control incubations contained no microsomes or compounds with known microsomal stabilities. Samples were subject to centrifugation to remove denatured protein and the supernatants were analysed by LCMS.
Half lives were calculated from the log vs time transformed data according to the following equation: […]
Where λ is the slope of the linear regression line under first order (Test Article concentration <Km) conditions.

K+ATP channel = K+ATP channel (Rattus norvegicus, UniProt Q09429); test: KATP channel receptor binding assay ([3H]glibenclamide); details: Table 1; 10 μM compound concentration; [3H]glibenclamide 0.1 nM, rat cerebral cortex; read-out: K^+ATP Channel (% Inhibition of Control Specific Binding)
Sequence of K+ATP channel (Q09429 whole entry): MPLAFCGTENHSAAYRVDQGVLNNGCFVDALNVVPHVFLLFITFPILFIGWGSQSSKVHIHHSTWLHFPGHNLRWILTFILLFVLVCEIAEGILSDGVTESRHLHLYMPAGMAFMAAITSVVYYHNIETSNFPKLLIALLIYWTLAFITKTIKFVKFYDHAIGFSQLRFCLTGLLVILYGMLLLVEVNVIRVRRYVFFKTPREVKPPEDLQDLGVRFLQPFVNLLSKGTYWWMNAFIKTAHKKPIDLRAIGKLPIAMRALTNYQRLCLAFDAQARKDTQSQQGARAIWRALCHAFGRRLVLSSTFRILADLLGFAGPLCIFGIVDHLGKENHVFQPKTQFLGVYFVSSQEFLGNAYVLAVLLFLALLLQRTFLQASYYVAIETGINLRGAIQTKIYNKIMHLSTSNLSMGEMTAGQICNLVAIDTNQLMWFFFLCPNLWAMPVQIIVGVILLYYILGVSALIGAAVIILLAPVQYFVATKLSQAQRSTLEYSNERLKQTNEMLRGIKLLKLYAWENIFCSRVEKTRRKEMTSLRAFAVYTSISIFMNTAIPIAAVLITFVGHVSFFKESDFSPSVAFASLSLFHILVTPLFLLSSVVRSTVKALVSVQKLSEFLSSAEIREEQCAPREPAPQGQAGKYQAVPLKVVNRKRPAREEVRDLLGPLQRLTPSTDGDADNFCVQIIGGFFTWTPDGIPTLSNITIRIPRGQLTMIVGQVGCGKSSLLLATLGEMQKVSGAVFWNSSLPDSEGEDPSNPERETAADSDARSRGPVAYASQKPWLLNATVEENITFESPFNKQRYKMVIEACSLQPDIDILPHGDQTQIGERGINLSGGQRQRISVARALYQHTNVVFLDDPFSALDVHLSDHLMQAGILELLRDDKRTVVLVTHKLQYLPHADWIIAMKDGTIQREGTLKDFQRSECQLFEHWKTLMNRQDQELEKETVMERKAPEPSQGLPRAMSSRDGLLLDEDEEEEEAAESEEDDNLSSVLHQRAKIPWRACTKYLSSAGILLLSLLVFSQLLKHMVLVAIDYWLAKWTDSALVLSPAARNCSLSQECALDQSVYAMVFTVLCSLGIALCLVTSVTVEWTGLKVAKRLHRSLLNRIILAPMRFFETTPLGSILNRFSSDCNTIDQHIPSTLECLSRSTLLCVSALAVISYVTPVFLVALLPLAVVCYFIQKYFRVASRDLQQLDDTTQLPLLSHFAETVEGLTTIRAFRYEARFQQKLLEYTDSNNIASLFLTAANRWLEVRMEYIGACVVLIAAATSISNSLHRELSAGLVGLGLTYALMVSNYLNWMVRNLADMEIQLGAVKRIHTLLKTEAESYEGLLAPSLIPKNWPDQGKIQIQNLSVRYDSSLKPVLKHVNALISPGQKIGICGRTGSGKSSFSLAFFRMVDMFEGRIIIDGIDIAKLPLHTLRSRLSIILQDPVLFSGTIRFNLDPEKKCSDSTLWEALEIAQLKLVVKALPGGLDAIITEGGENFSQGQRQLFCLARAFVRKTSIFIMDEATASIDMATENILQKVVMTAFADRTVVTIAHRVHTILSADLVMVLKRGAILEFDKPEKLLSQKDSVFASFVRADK
Sequence of K+ATP channel (P70673 whole entry partner): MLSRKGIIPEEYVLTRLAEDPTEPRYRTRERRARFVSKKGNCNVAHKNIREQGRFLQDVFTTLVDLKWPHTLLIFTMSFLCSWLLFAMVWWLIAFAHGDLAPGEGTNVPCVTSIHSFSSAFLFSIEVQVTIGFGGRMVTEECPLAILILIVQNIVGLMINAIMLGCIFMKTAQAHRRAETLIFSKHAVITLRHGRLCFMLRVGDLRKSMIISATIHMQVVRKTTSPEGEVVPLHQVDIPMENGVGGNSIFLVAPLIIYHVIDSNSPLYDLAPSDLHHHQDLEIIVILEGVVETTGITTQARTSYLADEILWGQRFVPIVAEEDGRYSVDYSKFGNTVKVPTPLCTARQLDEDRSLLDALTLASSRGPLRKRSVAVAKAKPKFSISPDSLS
Description: KATP Channel Mediated Binding Assay
The compounds of Comparative Examples I to XII and Compounds 59, 30, 22, 76 and 69 were tested for their effects in an in vitro receptor binding KATP channel assay.
The specific ligand binding to the receptor is defined as the difference between the total binding and the non-specific binding determined in the presence of an excess of unlabelled ligand. The results are expressed as a percent inhibition of control specific binding obtained in the presence of the test compounds.
In each experiment, the respective reference compound was tested concurrently with the test compounds in order to assess the assay suitability. It was tested at several concentrations (for IC50 value determination), and the data were compared with historical values.

[3] = given beside the compound name in Examples 1 to 167, read-out: Potency Range (GST2 IC50)
[4] = Table 1, read-out: GST2 IC50 Range

IC50 [1, 3] [nM] | half-life [2] [h] | IC50 [1, 4] [nM] | inhibition at 10 µM (K+ATP channel) [%] | Compound | Mouse t½ [2] [h]
101 to 1000 | > 1 | – | – | O=C(Nc1ccc(OC(F)(F)F)cc1)N1CCN(C(=O)c2cccc(F)n2)CC1 [Compound 21, 4-(6-Fluoro-pyridine-2-carbonyl)-piperazine-1-carboxylic acid (4-trifluoromethoxy-phenyl)-amide] | –
101 to 1000 | > 1 | – | – | O=C(Nc1nc2cc(Cl)ccc2o1)N1CCN(C(=O)c2cccc(F)c2)CC1 [Compound 39, 4-(3-Fluoro-benzoyl)-piperazine-1-carboxylic acid (5-chloro-benzooxazol-2-yl)-amide] | –
11 to 100 | > 1 | – | – | CC(C)NC(=O)N1CCN(c2ccc(NC(=O)N3CCN(C(=O)c4cccc(F)c4)CC3)cc2F)CC1 [Compound 52, 4-(3-fluorobenzoyl)-N-{3-fluoro-4-[4-(isopropylcarbamoyl)piperazin-1-yl]phenyl}piperazine-1-carboxamide] | –
101 to 1000 | 0.978 | – | – | CN1CCN(c2ccc(NC(=O)N3CCN(C(=O)c4cccc(F)c4)CC3)cc2F)CC1 [Compound 60, 4-(3-Fluoro-benzoyl)-piperazine-1-carboxylic acid [3-fluoro-4-(4-methyl-piperazin-1-yl)-phenyl]-amide] | –
101 to 1000 | > 1 | – | – | O=C(Nc1ccc(Cl)nc1)N1CCN(C(=O)c2cccc(F)c2)CC1 [Compound 63, 4-(3-Fluoro-benzoyl)-piperazine-1-carboxylic acid (6-chloro-pyridin-3-yl)-amide] | –
101 to 1000 | > 1 | – | – | O=C(Nc1ccc(C(=O)N2CCOCC2)cc1)N1CCN(C(=O)c2cccc(F)c2)CC1 [Compound 101, 4-(3-Fluoro-benzoyl)-piperazine-1-carboxylic acid [4-(morpholine-4-carbonyl)-phenyl]-amide] | –
101 to 1000 | > 1 | – | – | NC(=O)c1ccc(NC(=O)N2CCN(C(=O)c3cccc(F)c3)CC2)cc1 [Compound 105, 4-(3-Fluoro-benzoyl)-piperazine-1-carboxylic acid (4-carbamoyl-phenyl)-amide] | –
101 to 1000 | > 1 | – | – | O=C(Nc1cccc(NC(=O)N2CCN(C(=O)c3cccc(F)c3)CC2)c1)c1ccc[n+]([O-])c1 [Compound 109, 4-(3-Fluoro-benzoyl)-piperazine-1-carboxylic acid {3-[(1-oxy-pyridine-3-carbonyl)-amino]-phenyl}-amide] | –
101 to 1000 | > 1 | – | – | O=C(Nc1ccc(NC(=O)N2CCN(C(=O)c3cccc(F)c3)CC2)cc1)c1ccncc1 [Compound 123, 4-(3-Fluoro-benzoyl)-piperazine-1-carboxylic acid {4-[(pyridine-4-carbonyl)-amino]-phenyl}-amide] | –
101 to 1000 | > 1 | – | – | CS(=O)(=O)Nc1ccc(NC(=O)N2CCN(C(=O)c3cccc(F)c3)CC2)cc1 [Compound 126, 4-(3-Fluoro-benzoyl)-piperazine-1-carboxylic acid (4-methanesulfonylamino-phenyl)-amide] | –
11 to 100 | > 1 | – | – | O=C(Nc1ccc(N2CCOCC2)nc1)N1CCN(C(=O)c2cccc(F)c2)CC1 [Compound 154, 4-(3-Fluoro-benzoyl)-piperazine-1-carboxylic acid (6-morpholin-4-yl-pyridin-3-yl)-amide] | –
101 to 1000 | 0.99 | – | – | O=C(Nc1ccc(F)cc1)N1CCN(C(=O)c2cccc(F)c2)CC1 [Compound 155, 4-(3-Fluoro-benzoyl)-piperazine-1-carboxylic acid (4-fluoro-phenyl)-amide] | –
101 to 1000 | 0.523 | – | – | Cc1ccccc1C(=O)N1CCN(C(=O)Nc2ccc(F)cc2)CC1 [Compound 156, 4-(2-Methyl-benzoyl)-piperazine-1-carboxylic acid (4-fluoro-phenyl)-amide] | –
– | – | 101 to 1000 | -1 | O=C(Nc1cc(C(F)(F)F)cc(C(F)(F)F)c1)N1CCN(C(=O)c2ccco2)CC1 [Compound I, 4-(Furan-2-carbonyl)-piperazine-1-carboxylic acid (3,5-bis-trifluoromethyl-phenyl)-amide, reference compound] | –
– | – | 101 to 1000 | -17 | O=C(Nc1cc(Cl)cc(Cl)c1)N1CCN(C(=O)c2ccco2)CC1 [Compound II, 4-(Furan-2-carbonyl)-piperazine-1-carboxylic acid (3,5-dichloro-phenyl)-amide, reference compound] | –
– | – | 101 to 1000 | -8 | O=C(Nc1cc(C(F)(F)F)ccc1Cl)N1CCN(C(=O)c2ccco2)CC1 [Compound III, 4-(Furan-2-carbonyl)-piperazine-1-carboxylic acid (2-chloro-5-trifluoromethyl-phenyl)-amide, reference compound] | –
– | – | 101 to 1000 | -7 | O=C(c1ccco1)N1CCN(C(=S)Nc2cc(Cl)cc(Cl)c2)CC1 [Compound IV, 4-(Furan-2-carbonyl)-piperazine-1-carbothioic acid (3,5-dichloro-phenyl)-amide, reference compound] | –
– | – | 101 to 1000 | 10 | O=C(c1ccccc1)N1CCN(C(=S)Nc2cc(C(F)(F)F)cc(C(F)(F)F)c2)CC1 [Compound IX, 4-Benzoyl-piperazine-1-carbothioic acid (3,5-bis-trifluoromethyl-phenyl)-amide, reference compound] | –
– | – | 101 to 1000 | -20 | O=C(c1ccco1)N1CCN(C(=S)Nc2cc(C(F)(F)F)ccc2Cl)CC1 [Compound V, 4-(Furan-2-carbonyl)-piperazine-1-carbothioic acid (2-chloro-5-trifluoromethyl-phenyl)-amide, reference compound] | –
– | – | – | 4 | O=C(c1ccco1)N1CCN(C(=S)Nc2cc(C(F)(F)F)cc(C(F)(F)F)c2)CC1 [Compound VI, 4-(Furan-2-carbonyl)-piperazine-1-carbothioic acid (3,5-bis-trifluoromethyl-phenyl)-amide] | –
– | – | 11 to 100 | -10 | O=C(Nc1cc(Cl)cc(Cl)c1)N1CCN(C(=O)c2ccccc2)CC1 [Compound VII, 4-Benzoyl-piperazine-1-carboxylic acid (3,5-dichloro-phenyl)-amide, reference compound] | –
– | – | 101 to 1000 | -3 | O=C(Nc1cc(C(F)(F)F)ccc1Cl)N1CCN(C(=O)c2ccccc2)CC1 [Compound VIII, 4-Benzoyl-piperazine-1-carboxylic acid (2-chloro-5-trifluoromethyl-phenyl)-amide, reference compound] | –
– | – | 101 to 1000 | -10 | O=C(c1ccccc1)N1CCN(C(=S)Nc2cc(Cl)cc(Cl)c2)CC1 [Compound X, 4-Benzoyl-piperazine-1-carbothioic acid (3,5-dichloro-phenyl)-amide, reference compound] | –
– | – | 11 to 100 | -12 | O=C(c1ccccc1)N1CCN(C(=S)Nc2cc(C(F)(F)F)ccc2Cl)CC1 [Compound XI, 4-Benzoyl-piperazine-1-carbothioic acid (2-chloro-5-trifluoromethyl-phenyl)-amide, reference compound] | –
– | – | 11 to 100 | -14 | O=C(c1ccccc1)N1CCN(C(=S)Nc2ccc(C(F)(F)F)cc2)CC1 [Compound XII, 4-Benzoyl-piperazine-1-carbothioic acid (4-trifluoromethyl-phenyl)-amide, reference compound] | –

Compound | IC50 [1, 3] [nM] | half-life [2] [h] | IC50 [1, 4] [nM] | inhibition at 10 µM (K+ATP channel) [%] | Mouse t½ [2] [h]
4-(2-Fluoro-4-{[4-(3-fluoro-benzoyl)-piperazine-1-carbonyl]-amino}-phenyl)-piperazine-1-carboxylic acid isopropyl ester [Compound 50] | 11 to 100 | – | – | – | >1
